Series [1] has as its system CAKI-1 human renal tumor xenografts. Conditions: i.v., equivalent dosages.
Method: The 0.8 mg/mL solution was diluted with saline to 0.53 and 0.35 mg/mL.
The 0.975 mg/mL solution was further diluted with saline to 0.65 and 0.43 mg/mL.
Both compounds and vehicle were administered to mice by animal's body weight on each day of treatment with the injection volume being 0.1 mL/10 g of body weight.
Tumors were measured and volume determined using formula L×W^2/2=mm^3; and weight calculated assuming 1 mm^3=1 mg. The study was terminated 95 days after tumor implantation.
The next series in a line: in vivo. The settings on record: male, athymic NCr-nu/nu, mouse, iv, 8 mg/kg.
The conditions of series [2]: cumulative dose; cited from earlier work.
For series [3] the following is noted: in vivo; cited from earlier work.

Structures can show the parent of a compound that is named as a salt.

On to `COc1cccc2c1C(=O)c1c(O)c3c(c(O)c1C2=O)C[C@@](O)(C(=O)CO)C[C@@H]3O[C@H]1C[C@H](N)[C@H](O)[C@H](C)O1.O=C(O)c1cc(=O)[nH]c(=O)[nH]1` [DOX orotate, doxorubicin orotate], for which, in series [1], the “difference in tumor growth, DOX orotate compared with DOX” value is recorded as “no significant difference”.

One may read the AUC as the area under the concentration-time curve, a measure of exposure. For `COc1cccc2c1C(=O)c1c(O)c3c(c(O)c1C2=O)C[C@@](O)(C(=O)CO)C[C@@H]3O[C@H]1C[C@H](N)[C@H](O)[C@H](C)O1` [DOX, (85, 105)-10-[(3-amino-2,3,6-trideoxy-(c-L-lyxo-hexopyranosyl)oxy]-8-glycolyl 1-7,8,9,10-tetrahydro-6,8,11-trihydroxy-1-methoxy-5,12-naphthacenedione hydrochloride], the concentration at 1 day after the last injection (day 26) in the series “in vivo” is 7400 ng/g. In series [2], the “total dosage at which irreversible myocardial toxicity leading to congestive heart failure may be encountered” value is recorded as approximately 550 mg/m^2. The AUC in series [3] was 9900 µg·h/mL.

(Values after patent US8148339B2, “Method of reducing cardiac levels of doxorubicin when given as orotate salt” (Savvipharm Inc, priority 2006, dated 2012).)
